The values that follow come from patent US11691992B2 (Anacor Pharmaceuticals, Inc., priority 2017, dated 2023).

The experiment has as its system STIB719/ILRAD560 T. vivax (drug sensitive) strain. Put plainly: Ex vivo Alamar Blue 48 h drug sensitivity assay for T. vivax. To be noted: Trypanosoma vivax, ex vivo bloodstream forms from mouse, 45 hrs + 3 hrs resazurin, read-out: IC50: I Hypoxanthine Incorporation T. vivax STIB 719/ILRA D 560, 2 d. It is filed as cell-based. Here is the method:
Example 109. Ex Vivo Alamar Blue 48 h Drug Sensitivity Assay for T. vivax
[…] Test compounds were prepared as 10 mg/mL DMSO stocks for each assay run. Compounds were assayed in at least three separate, independent test runs and an 11-point dilution curve was used to determine the IC50 values. Bloodstream form trypanosomes were propagated and harvested from a highly parasitemic mouse (via cardiac puncture) and were incubated with test compounds for 45 hrs at 37° C. in a humidified atmosphere containing 5% CO2, supported in HMI media containing 20% bovine serum. […] Plates were then read using a fluorescent plate reader (Spectramax, Gemini XS, Bucher Biotec, Basel, Switzerland) using an excitation wavelength of 536 nm and an emission wavelength of 588 nm. Data points were averaged to generate sigmoidal dose-response curves and IC50 values were determined using Softmax Pro 5.2 software.
A general note: The colour change of resazurin is a common sign of viable cells or microbes.

pIC50: −log10 of the molar value.

Take `O=C(Nc1ccc2c(c1)B(O)OC2)c1cn(-c2ccc(F)cc2)nn1` [Example 60, 1-(4-Fluorophenyl)-N-(1-hydroxy-1,3-dihydrobenzo[c][1,2]oxaborol-6-yl)-1H-1,2,3-triazole-4-carboxamide]: the pIC50 is 6.30 to 6.70.
